Laboratory results from publication PMC6151511, “Rational Design of Nucleoside–Bile Acid Conjugates Incorporating a Triazole Moiety for Anticancer Evaluation and SAR Exploration” (Molecules : A Journal of Synthetic Chemistry and Natural …, 2017).
Several values for one entry are separate records, joined by “and”; a condition that tells them apart may be missing. Equal values may be shown once. Read-outs that look alike come from different tables or passages of the source.

Columns and labels:
Assay type in all cases: cell-based
K562 leukemia cells = assay: MTT assay, cell growth inhibition of K562 leukemia cells; settings: for cytotoxicity against K562 (in words): 10, 25 and 50 μM
Procedure: (§1) All conjugated compounds prepared via click chemistry and listed in Table 1 were evaluated in vitro for their cytotoxic activity against K562 leukemia cells and the colon cancer cell line HCT116. Normal human skin fibroblast cells were chosen as a control and cisplatin served as a reference compound. The cytotoxicity was evaluated using the MTT assay (details are reported in the Materials and Methods section). In all experiments the cell growth inhibition of K562 and HCT116 was determined for each compound at concentrations of 10, 25 and 50 μM after 72 h of treatment and up to 100 μM in the case of fibroblasts.
(§2) Cell growth inhibition assays were carried out using the leukemia cell line K562 and colon carcinoma HCT116. Cell lines were obtained from ATCC (Manassas, VA, USA) and maintained in RPMI 1640, supplemented with 10% fetal bovine serum (FBS), penicillin (100 Units mL^−1), streptomycin (100 μg mL^−1) and glutamine (2 mM) (complete medium); the pH of the medium was 7.2 and the incubation was performed at 37 °C in a 5% CO2 atmosphere. Adherent cells were routinely used at 70% of confluence and passaged every 3 days by treatment with 0.05% Trypsin-EDTA (Lonza, Walkersville, MD, USA). K562 cells were routinely fed every 3 days.
(§3) The antiproliferative activity of the compounds was tested using the 3-(4,5-dimethylthiozol-2-yl)2,5-diphenyltetrazolium bromide solution (MTT) assay. K562 and HCT116 were seeded in triplicate in 96-well trays respectively at the density of 5 × 10^3 and 10^4 in 50 μL of complete medium. Stock solutions (50 mM) of each compound were made in DMSO and diluted in complete medium to give final concentrations of 50, 25 and 10 μM. Untreated cells were placed in every plate as a negative control. The cells were exposed to the compounds, in 100 μL total volume, for 72 h.

[1] = tested on: Normal human skin fibroblast cells; assay: MTT assay, cytotoxicity on normal fibroblasts (control); settings: up to 100 μM; for IC50: MTT, 72 h incubation, mean of three independent experiments ± SD, IC50 > 100 means inhibition <10% at 100 μM, read-out: IC50 FIBRO
Procedure: as §1, §3

HCT116 colon carcinoma = assay: MTT assay, cell growth inhibition of HCT116 colon carcinoma; settings: for cytotoxicity against HCT116 (in words): 10, 25 and 50 μM, 72 h; for IC50: MTT, 72 h incubation, mean of three independent experiments ± SD, IC50 > 50 means inhibition <20% at 50 μM
Procedure: as §1, §2, §3

[2] = Homo sapiens, K562, 72 h, MTT, 72 h incubation, mean of three independent experiments ± SD, IC50 > 50 means inhibition <20% at 50 μM, read-out: IC50 K562
[3] = Homo sapiens, Skin fibroblast, 72 h
[4] = MTT, 72 h incubation, mean of three independent experiments ± SD, IC50 > 50 means inhibition <20% at 50 μM, read-out: IC50 K562

Row | SMILES | IC50 (K562 leukemia cells; [2]) [µM] | IC50 [1, 3] [µM] | IC50 (HCT116 colon carcinoma; Homo sapiens, HCT-116, 72 h) [µM] | other results
1 | COC(=O)CC[C@@H](C)[C@H]1CC[C@H]2[C@@H]3[C@H](O)C[C@@H]4C[C@H](N=[N+]=[N-])CC[C@]4(C)[C@H]3CC[C@]12C [3α-N3-CDC, methyl 3α-azido-7α-hydroxy-5β-cholan-24-oate] | 23 ± 2 | > 100 | 31 ± 2.3 | cytotoxicity against K562 (in words) (K562 leukemia cells; 72 h): active; cytotoxicity towards fibroblast cells (in words) ([1]; 72 h): not active; cytotoxicity against HCT116 (in words) (HCT116 colon carcinoma): active
2 | CC(CCC(=O)NCCS(=O)(=O)O)[C@H]1CCC2C3C(CC[C@@]21C)[C@@]1(C)CC[C@@H](N=[N+]=[N-])CC1C[C@@H]3O (stereo partly drawn) [3α-N3-TUDCA, (3α-Azido-7β-hydroxy-5β-cholan-24-oyl)-2-aminoethanesulfonic Acid] | > 50 | > 100 | > 50 | cytotoxicity against K562 (in words) (K562 leukemia cells; 72 h): not be cytotoxic; cytotoxicity towards fibroblast cells (in words) ([1]; 72 h): not be cytotoxic; cytotoxicity against HCT116 (in words) (HCT116 colon carcinoma): not be cytotoxic
3 | COC(=O)CC[C@@H](C)[C@H]1CC[C@H]2[C@@H]3[C@@H](O)C[C@@H]4C[C@H](N=[N+]=[N-])CC[C@]4(C)[C@H]3CC[C@]12C [3α-N3-UDC, methyl 3α-azido-7β-hydroxy-5β-cholan-24-oate] | 25 ± 1 | > 100 | 22 ± 1.5 | cytotoxicity against K562 (in words) (K562 leukemia cells; 72 h): active; cytotoxicity towards fibroblast cells (in words) ([1]; 72 h): not active; cytotoxicity against HCT116 (in words) (HCT116 colon carcinoma): active
4 | CC(CCN=[N+]=[N-])[C@H]1CCC2C3C(CC[C@@]21C)[C@@]1(C)CC[C@@H](O)CC1C[C@H]3O (stereo partly drawn) [23-N3-nor-CDC, 3α,7α-Dihydroxy-5β-23-azido-24-norcholane] | 21 ± 1.2 | 79 ± 3.1 | 25 ± 2 | 
5 | CC(CCN=[N+]=[N-])[C@H]1CCC2C3C(CC[C@@]21C)[C@@]1(C)CC[C@@H](O)CC1C[C@@H]3O (stereo partly drawn) [23-N3-nor-UDC, 3α,7β-Dihydroxy-5β-23-azido-24-norcholane] | 15 ± 1 | 81 ± 2 | 22 ± 1.4 | 
6 | COC(=O)CCC(C)C1CCC2C3C(O)CC4CC(n5cc(CCCCC#Cc6nc7c(N)ncnc7n6C6OC(CO)C(O)C6O)nn5)CCC4(C)C3CCC12C (stereo not shown) [A-CDC] | 43.5 ± 1.3 | > 100 |  | IC50 (HCT116 colon carcinoma): ≤ 25 µM and 23.1 µM
7 | CC(CCC(=O)NCCS(=O)(=O)O)C1CCC2C3C(O)CC4CC(n5cc(CCCCC#Cc6nc7c(N)ncnc7n6C6OC(CO)C(O)C6O)nn5)CCC4(C)C3CCC12C (stereo not shown) [A-TUDCA] | > 50 | > 100 | > 50 | 
8 | COC(=O)CCC(C)C1CCC2C3C(O)CC4CC(n5cc(CCCCC#Cc6nc7c(N)ncnc7n6C6OC(CO)C(O)C6O)nn5)CCC4(C)C3CCC12C (stereo not shown) [A-UDC] |  |  |  | IC50 (K562 leukemia cells; [4]): > 50 µM; IC50 [1]: > 100 µM; IC50 (HCT116 colon carcinoma): > 50 µM
9 | CC(CCn1cc(CCCCC#Cc2nc3c(N)ncnc3n2C2OC(CO)C(O)C2O)nn1)C1CCC2C3C(O)CC4CC(O)CCC4(C)C3CCC12C (stereo not shown) [A-nor-CDC] |  | > 100 | 44.1 ± 2.5 | IC50 (K562 leukemia cells; [4]): ≤ 25 µM and 23.6 µM
10 | CC(CCn1cc(CCCCC#Cc2nc3c(N)ncnc3n2C2OC(CO)C(O)C2O)nn1)C1CCC2C3C(O)CC4CC(O)CCC4(C)C3CCC12C (stereo not shown) [A-nor-UDC] |  |  |  | IC50 (K562 leukemia cells; [4]): > 50 µM; IC50 [1]: > 100 µM; IC50 (HCT116 colon carcinoma): > 50 µM
11 | C#CCCCCC#Cc1nc2c(N)ncnc2n1[C@@H]1O[C@H](CO)[C@@H](O)[C@H]1O [ALK-A, 8-(1,7-Octadynyl)-adenosine] | > 50 | > 100 | > 50 | 
12 | C#CCCCCC#Cc1nc2c(=O)[nH]c(N)nc2n1[C@@H]1O[C@H](CO)[C@@H](O)[C@H]1O [ALK-G, 8-(1,7-Octadynyl)-guanosine] | > 50 | > 100 | > 50 | 
13 | C#CCCCCC#Cc1nc2c(=O)[nH]c(N)nc2n1[C@H]1C[C@H](O)[C@@H](CO)O1 [ALK-dG, 8-(1,7-Octadynyl)-2′-deoxyguanosine] | > 50 | > 100 | > 50 | 
14 | N.N.[Cl][Pt][Cl] [CISPLATIN, cisplatin, reference compound] |  |  |  | IC50 (K562 leukemia cells; [4]): 5.4 ± 1 µM; IC50 [1]: 23.6 ± 3.5 µM; IC50 (HCT116 colon carcinoma): 8.5 ± 1.2 µM
15 | COC(=O)CCC(C)[C@H]1CCC2C3C(CC[C@@]21C)[C@@]1(C)CC[C@@H](n2cc(CCCCC#Cc4nc5c(=O)[nH]c(N)nc5n4[C@@H]4O[C@H](CO)[C@@H](O)[C@H]4O)nn2)CC1C[C@H]3O (stereo partly shown) [G-CDC] | > 50 | > 100 | ≤ 25 | IC50 (HCT116 colon carcinoma): 25.3 ± 3.8 µM
16 | CC(CCC(=O)NCCS(=O)(=O)O)[C@H]1CCC2C3C(CC[C@@]21C)[C@@]1(C)CC[C@@H](n2cc(CCCCC#Cc4nc5c(=O)[nH]c(N)nc5n4[C@@H]4O[C@H](CO)[C@@H](O)[C@H]4O)nn2)CC1C[C@@H]3O (stereo partly shown) [G-TUDCA] | > 50 | > 100 | > 50 | 
17 | COC(=O)CCC(C)[C@H]1CCC2C3C(CC[C@@]21C)[C@@]1(C)CC[C@@H](n2cc(CCCCC#Cc4nc5c(=O)[nH]c(N)nc5n4[C@@H]4O[C@H](CO)[C@@H](O)[C@H]4O)nn2)CC1C[C@@H]3O (stereo partly shown) [G-UDC] | > 50 | > 100 | > 50 | 
18 | CC(CCn1cc(CCCCC#Cc2nc3c(=O)[nH]c(N)nc3n2[C@@H]2O[C@H](CO)[C@@H](O)[C@H]2O)nn1)[C@H]1CCC2C3C(CC[C@@]21C)[C@@]1(C)CC[C@@H](O)CC1C[C@H]3O (stereo partly shown) [G-nor-CDC] | > 50 | > 100 | > 50 | 
19 | CC(CCn1cc(CCCCC#Cc2nc3c(=O)[nH]c(N)nc3n2[C@@H]2O[C@H](CO)[C@@H](O)[C@H]2O)nn1)[C@H]1CCC2C3C(CC[C@@]21C)[C@@]1(C)CC[C@@H](O)CC1C[C@@H]3O (stereo partly shown) [G-nor-UDC] | > 50 | > 100 | > 50 | 
20 | CC(CCC(=O)NCCS(=O)(=O)O)[C@H]1CCC2C3C(CC[C@@]21C)[C@@]1(C)CC[C@@H](n2cc(CCCCC#Cc4nc5c(N)ncnc5n4[C@H]4C[C@H](O)[C@@H](CO)O4)nn2)CC1C[C@@H]3O (stereo partly shown) [dA-TUDCA] | > 50 | > 100 | > 50 | 
21 | CC(CCn1cc(CCCCC#Cc2nc3c(N)ncnc3n2[C@H]2C[C@H](O)[C@@H](CO)O2)nn1)[C@H]1CCC2C3C(CC[C@@]21C)[C@@]1(C)CC[C@@H](O)CC1C[C@@H]3O (stereo partly shown) [dA-nor-UDC] | > 50 | > 100 | 44.8 ± 3.5 | IC50 (K562 leukemia cells; Homo sapiens, K562, 72 h, extrapolated beyond the highest tested concentration of 50 μM, 72 h, read-out: IC50 K562, extrapolated value): 87.1 µM
22 | COC(=O)CCC(C)[C@H]1CCC2C3C(CC[C@@]21C)[C@@]1(C)CC[C@@H](n2cc(CCCCC#Cc4nc5c(=O)[nH]c(N)nc5n4[C@H]4C[C@H](O)[C@@H](CO)O4)nn2)CC1C[C@H]3O (stereo partly shown) [dG-CDC] | > 50 | > 100 | > 50 | 
23 | CC(CCC(=O)NCCS(=O)(=O)O)[C@H]1CCC2C3C(CC[C@@]21C)[C@@]1(C)CC[C@@H](n2cc(CCCCC#Cc4nc5c(=O)[nH]c(N)nc5n4[C@H]4C[C@H](O)[C@@H](CO)O4)nn2)CC1C[C@@H]3O (stereo partly shown) [dG-TUDCA] | > 50 | > 100 | > 50 | 
24 | CC(CCC(=O)NCCS(=O)(=O)O)[C@H]1CCC2C3C(CC[C@@]21C)[C@@]1(C)CC[C@@H](n2cc(CCCCC#Cc4cn([C@H]5C[C@H](O)[C@@H](CO)O5)c(=O)[nH]c4=O)nn2)CC1C[C@@H]3O (stereo partly shown) [dU-TUDCA] |  | > 100 | > 50 | 
